Literature values in patent US9750683B2, “Antifungal compositions for the treatment of skin and nails” (Veloce BioPharma, LLC, priority 2012, dated 2017).
Where two headings read alike, the source gives them in different places.

For `COC1=CC(=O)C[C@@H](C)[C@]12Oc1c(Cl)c(OC)cc(OC)c1C2=O` [griseofulvin], the ratio of penetration (dissolved in DMSO, relative to the other solvents) is listed as 60, the ratio of penetration (dissolved in alcohol) is listed as 3 and the ratio of penetration (dissolved in benzene) is listed as 1. The ratio of penetration (dissolved in dimethylacetamide) was 40 and the ratio of penetration (dissolved in dimethylformamide) was 7.
